# Data as given in patent publication US12285407B2, “Bis-indolylmethane derivatives and uses thereof” (The University of The West Indies, priority 2018, dated 2025).
# What was measured:
# [1] = system: Enterococcus faecium ATCC 19434; test: Broth microdilution MIC of SP-BIMs; format: cell-based; conditions: ATCC19434, SP-BIM alone, read-out: MIC Enterococcus faecium ATCC 19434
# [2] = system: Corynebacterium diphtheriae ATCC 27010; test: Broth microdilution MIC of SP-BIMs; format: cell-based; conditions: ATCC27010, SP-BIM alone, read-out: MIC Corynebacterium diphtheriae ATCC 27010
# [3] = system: Pseudomonas aeruginosa ATCC 27853; test: Broth microdilution MIC of SP-BIMs; format: cell-based; conditions: ATCC27853, SP-BIM alone, read-out: MIC Pseudomonas aeruginosa ATCC 27853
# [4] = system: Candida albicans ATCC 22972; test: Broth microdilution MIC of SP-BIMs; format: cell-based; conditions: ATCC22972, SP-BIM alone, read-out: MIC Candida albicans ATCC 22972
# Gram-negative bacteria = test: Adjuvant broth microdilution; format: cell-based; conditions: SP-BIM at 50 μg mL^−1
# Experimental: To each well, the SP-BIM to be tested was added to a final concentration of 50 μg mL^−1. […] SP-BIMs were assessed as potential adjuvants based on their ability to reduce the MIC of the antibiotic against respective pathogen.
# in vitro = conditions: human
# [5] = In vivo acute toxicity (OECD guidelines); conditions: one subcutaneous injection, 2000 mg/kg and 300 mg/kg; 14 days
compound,measurement,setting,value
"Oc1cc(C(c2c[nH]c3ccccc23)c2c[nH]c3ccccc23)cc(O)c1O [SP-BIM 13, 5-(di(1H-indol-3-yl)methyl)benzene-1,2,3-triol]",MIC,[1],125 µg/mL
same,MIC,[2],> 250 µg/mL
same,MIC,[3],250 µg/mL
same,MIC,[4],250 µg/mL
same,potentiating activity for Gram-negative bacteria,Gram-negative bacteria,No potentiating activity was observed
same,CC50,in vitro,750 µM
same,mice deaths,[5],no mice deaths were recorded
same,mice weight and appetite,[5],did not significantly vary from the untreated mice
